In patent US20080145313A1, “Compositions and Methods for the Treatment and Prevention of Neoplastic Disorders” (Genesis Research & Development Corporation Limited, priority 2006, published 2008):
pIC50: −log10 of the molar value. Like-named read-outs stand apart in the source and are kept apart here.

What was measured:
A549 cells [1] = assay: Growth inhibition of siRNA-transfected A549 cells, SYBR Green I DNA content; type: cell-based, human; details: 10 nM siRNA; for Growth Inhibition in A549 cells: DNA content 96 hours after transfection
Method in brief: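 A549 cells reverse-transfected with 10 nM Stealth siRNAs via Lipofectamine RNAiMAX, seeded at 5×10^3 cells/cm^2 in RPMI 1640/10% FCS; non-specific siRNA control. DNA content read 96 h post-transfection by SYBR Green I fluorescence (ex 485/em 535 nm) after freeze-thaw and Triton X-100 lysis; mean of three wells.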

HCT-116 cells = assay: 5FU toxicity in HCT-116 cells after TYMS or DHFR knockdown, SYBR Green; type: cell-based; details: 5FU continuous for 3 days, read-out: IC50 value of 5FU following TYMS knockdown, HCT-116
Protocol: (§1) HCT-116 and A549 cells were transfected as described above with 0.1, 1.0 and 10 nM of three TYMS-specific siRNAs, labeled TYMS-1, TYMS-2 and TYM-3 (SEQ ID NO: 4833-4835 (DNA), and SEQ ID NO: 5139-5141 (RNA), or 1.0 and 10 nM control siRNAs (809-ctrl; SEQ ID NO: 4805 (DNA), and SEQ ID NO: 5302 (RNA) and 81ctrl; SEQ ID NO: 4804 (DNA), and SEQ ID NO: 5301 (RNA)). HCT-116 and A549 cells were also similarly transfected with 0.1, 1.0 and 10 nM of three DHFR-specific siRNAs, labeled DHFR-1, DHFR-2 and DHFR-3 (SEQ ID NO: 4836-4838 (DNA), and SEQ ID NO: 5142-5144 (RNA)), or control siRNA (SEQ ID NO: 4805 (DNA), and SEQ ID NO: 5302 (RNA)). Twenty four hours after transfection, cells were exposed to 5FU using a serial dilution starting at 44 μM, in medium containing either 10% normal FCS or 10% dialyzed FCS as described above. 5FU treatment was continuous for 3 days, at which time cell growth was analyzed by measuring DNA content per well using the SYBR Green assay outlined above. […] This combinatorial inhibitory effect was further increased when experiments were done in medium containing dialyzed FCS (FIGS. 27D-F; FIGS. 28D-F).
(§2) FIGS. 29 and 30 show transfection with DHFR siRNA similarly led to a dose-dependent increase in growth inhibition above that caused by the drug alone (control siRNA-transfected cells) in HCT-116 cells (FIGS. 29A-C), and A549 cells (FIGS. 30A-C). This combinatorial inhibitory effect was further increased when experiments were done in medium containing dialyzed FCS (FIGS. 29D-F; FIGS. 30D-F). The changes in the IC50 value for 5FU in HCT-116 and A549 cells following TYMS knockdown by individual siRNAs are listed in Table 16 below.

A549 cells [2] = assay: 5FU toxicity in A549 cells after TYMS or DHFR knockdown, SYBR Green; type: cell-based, human; details: 5FU continuous for 3 days, read-out: IC50 value of 5FU following TYMS knockdown, A549
Protocol: as §1, §2

SK-Mel-5 cells = assay: Growth inhibition of siRNA-transfected SK-Mel-5 cells, SYBR Green I DNA content; type: cell-based, human; details: 10 nM siRNA; standardized against control siRNA
Protocol: A549 cells (human lung cancer cell line; ATCC No. CCL-185), SK-MeI-5 cells (human melanoma cell line; ATCC No. HTB-70), MCF-7 cells (human adenocarcinoma cell line; ATCC No. HTB-22), HCT-116 cells (colorectal carcinoma; ATCC CCL-247) and HCT-116 p53 null cells (derived from ATCC No. CCL-247; Bunz et al., Science 282:1497-1501, 1998) were cultured in RPMI 1640 medium with 10% v/v heat-inactivated fetal calf serum (FCS). Cells were seeded at a density of 5×10^4 cells/cm^2 in multi-well tissue culture plates. Sequences of Stealth™ siRNA duplexes (Invitrogen) targeting human ribonucleotide reductase subunit 1 (SEQ ID NO: 22) and subunit 2 (SEQ ID NO; 38) are given in SEQ ID NO: 4830-4832 (DNA), and SEQ ID NO: 5136-5138 (RNA) for RRM1, and SEQ ID NO: 5306-5308 (DNA), and SEQ ID NO: 5303-5305 (RNA) for RRM2. siRNAs were transfected at different concentrations into cells using Lipofectamine™ RNAiMAX transfection reagent (Invitrogen). Non-specific siRNA (SEQ ID NO: 4804 and 4805 (DNA), and SEQ ID NO: 5301 and 5302 (RNA)) were used as controls. The cellular DNA content was measured using a SYBR Green I-based fluorometric assay at 24, 48, 72 and 96 hours after transfection (120 hours for the MCF-7 cells), as follows. At the indicated time points following reverse transfection, cells were harvested and frozen at −80° C. overnight. Cells were thawed and cell lysis buffer (phosphate-buffered saline (PBS) containing 1% Triton X-100, pH 7) and SYBR Green I (1:10^5 V/V; Invitrogen) was added to the wells and incubated overnight in the dark at 4° C.
The following day, cell lysates were mixed thoroughly, and DNA fluorescence was measured with a Wallac Victor^2 plate reader (Turku, Finland) set at an excitation frequency of 485 nm and measuring emission at 535 nm.
siRNA-mediated inhibition of cancer cell growth using siRNA targeting the YBX1 gene (SEQ ID NO: 92) was determined as follows. SK-MeI-5 cells were cultured in RPMI 1640 medium with 10% v/v heat-inactivated fetal calf serum. Cells were cultured as described above and reverse transfected with 0.1, 1.0, 10 and 40 nM (final concentration) of a pool of YBX1-targeting siRNAs (SEQ ID NO: 4982 and 4983 (DNA), and SEQ ID NO: 5277 and 5278 (RNA); referred to as 994 and 995 in FIG. 19) or a non-specific control (SEQ ID NO: 4804 (DNA), and SEQ ID NO: 5301 (RNA); referred to as Stealth 81 ctrl in FIG. 19), and cell growth determined after 120 h by measuring DNA fluorescence with a Wallac Victor^2 plate reader (Turku, Finland) set at an excitation frequency of 485 nm and measuring emission at 535 nm. Growth inhibition by the siRNA pool was standardized against the inhibition obtained with the control siRNAs.
siRNA-mediated RNAi was also determined on a panel of different cell lines. A549, SK-MeI-5, wt HCT-116, HCT-116−/−p53 and MCF-7 cells were transfected with 10 nM siRNAs targeting YBX-1 and growth inhibition determined as described above. The YBX1 siRNAs are given in SEQ ID NO: 4981 to 4985 (DNA) and SEQ ID NO: 5276-5280 (RNA). A non-specific siRNA (SEQ ID NO: 4804 (DNA) and SEQ ID NO: 5301 (RNA)) was used as control. Growth inhibition by the siRNAs, given in Table 14, was standardized against the inhibition obtained with the control siRNA.

YBX1 mRNA = YBX1 mRNA level by quantitative RT-PCR in A549 cells; type: cell-based, human; details: 10 nM siRNA; 24 h post-transfection
Protocol: A549 cells were transfected with 10 nM RRM1-1 (SEQ ID NO: 4830 (DNA), and SEQ ID NO: 5136 (RNA); light grey bar in FIG. 12A), RRM1-2 (SEQ ID NO: 4831 (DNA), and SEQ ID NO: 5137 (RNA); dark grey bar in FIG. 12A), RRM1-3 (SEQ ID NO: 4832 (DNA), and SEQ ID NO: 5138 (RNA); black bar in FIG. 12A) or control siRNA (SEQ ID NO: 4804 (DNA), and SEQ ID NO: 5301 (RNA)) (open bar in FIG. 12A) and relative mRNA levels quantified 24 h post-transfection. RNA was purified from cells using Trizol® extraction as per the manufacturer's protocol (Invitrogen). cDNA was prepared by digesting approximately 200 ng purified RNA with DNAse I (Invitrogen) for 15 minutes at room temperature, followed by 15 minutes at 65° C. in the presence of 25 mM EDTA. 30 ng random primers were added and incubated for 10 minutes at room temperature, 1 minute on ice; Superscript III polymerase (Invitrogen) was added in presence of 5 nM DTT (Sigma, St Louis, Mo.) and 1 mM deoxyribonucleotides (Invitrogen), and the reaction incubated at 25° C. for 5 minutes, followed by an hour at 55° C. cDNA was diluted 1:3 in 10 mM Tris pH 7.0, and quantitative RT-PCR carried out on an ABI Prism 7900HT (Applied Biosciences, Inc., Foster City, Calif.) using FastStart TaqMan SYBRGreen (Roche, Basel, Switzerland) and specific primers at 360 nM for RRM1 and RRM2 and the housekeeping genes HPRT and Lamin. Primer sequence pairs used for RRM1, RRM2, HPRT and lamin are given in SEQ ID NO: 4881 and 4882; 4883 and 4884; 4885 and 4886; 4887 and 4888 respectively.
A549 cells were transfected with 0.1, 1.0 and 10 nM siRNA (given in SEQ ID NO: 4981 to 4985 (DNA), and SEQ ID NO: 5276-5280 (RNA)) and the relative mRNA levels quantified 24 h post-transfection as described in Example 8.

[3] = cells transfected with 0.1 nM siRNA
[4] = cells transfected with 1 nM siRNA
[5] = cells transfected with 10 nM siRNA

SEQ ID NO: 4835: siRNA targeting TYMS (chain 1 ATTCAGGTAAATATGTGCATCTCCC; chain 2 AUUCAGGUAAAUAUGUGCAUCUCCC; chemistry not given here; one strand in two spellings)
Growth Inhibition in A549 cells (A549 cells [1]): ++ (inhibits by at least 75%)
pIC50 (HCT-116 cells; [3]): 6.49
pIC50 (HCT-116 cells; [4]): 6.72
pIC50 (HCT-116 cells; [5]): 6.96
pIC50 (A549 cells [2]; [3]): 6.21
pIC50 (A549 cells [2]; [4]): 6.89
pIC50 (A549 cells [2]; [5]): 6.70

SEQ ID NO: 4805: non-specific control siRNA (chain 1 GGGAAATGTCTCCTCCCATTGATTT; chain 2 GGGAAAUGUCUCCUCCCAUUGAUUU; chemistry not given here; one strand in two spellings) [reference compound]
pIC50 (HCT-116 cells; [3]): 6.19
pIC50 (HCT-116 cells; [4]): 6.22
pIC50 (HCT-116 cells; [5]): 6.22
pIC50 (A549 cells [2]; [3]): 6.09
pIC50 (A549 cells [2]; [4]): 6.17
pIC50 (A549 cells [2]; [5]): 6.19

SEQ ID NO: 4834: siRNA targeting TYMS (chain 1 TGTGGATCCCTTGATAAACCACAGC; chain 2 UGUGGAUCCCUUGAUAAACCACAGC; chemistry not given here; one strand in two spellings)
Growth Inhibition in A549 cells (A549 cells [1]): ++ (inhibits by at least 75%)
pIC50 (HCT-116 cells; [3]): 6.39
pIC50 (HCT-116 cells; [5]): 7.00
pIC50 (A549 cells [2]; [3]): 6.23
pIC50 (A549 cells [2]; [4]): 6.68
pIC50 (A549 cells [2]; [5]): 6.82

SEQ ID NO: 4981: siRNA targeting YBX1 (chain 1 TGGATAGCGTCTATAATGGTTACGG; chain 2 UGGAUAGCGUCUAUAAUGGUUACGG; chemistry not given here; one strand in two spellings)
growth inhibition, A549 cells (A549 cells [1]; standardized against control siRNA): + (At least 20% inhibition)
growth inhibition, SK-Mel-5 cells (SK-Mel-5 cells): ++ (At least 50% inhibition)
YBX1-specific reduction of mRNA levels in A549 cells (YBX1 mRNA): ++ (At least 50% inhibition)
